In brackets after ≈: the same amount, converted by molar mass.
Key:
Test in all cases: MIC, CLSI broth microdilution
Type in all cases: cell-based
[1] = tested on: Klebsiella aerogenes VIM-1, SHV-12
Method: (§1) Gram-negative and Gram-positive bacterial strains used during the in vitro minimum inhibitory concentration (MIC) determination were obtained either from the American Type Culture Collection (ATCC) or from clinical specimens. All strains were characterized genotypically and the respective antibiotic resistance markers for each strain were identified.
(§2) Isolates were sub-cultured onto appropriate media and stocked in skim milk at −80° C. Following two subcultures from frozen stock, in vitro antimicrobial susceptibility testing was performed using the Clinical and Laboratory Standards Institute (CLSI) broth microdilution method. Briefly, fresh cultures were suspended in culture media to give a final stock inoculum size of 5×10^7 colony forming units per milliliter of broth (CFU/mL). […] 100 μL of the stock solutions were added to the first wells in a 96-well plate and were then diluted using a 2-fold dilution method to give a range of 32-0.025 μg/mL. 100 μL of the bacterial suspensions were then added to the 96-well plates to give a final working inoculum size of 5×10^5 CFU/mL. The final compound concentration range was 16-0.0125 μg/mL. […] MICs for comparator agents were determined using custom-designed, in-house prepared 96-well broth microdilution panels.

Escherichia coli CMY-2 = conditions: CMY2
Method: as §1, §2

[2] = tested on: Escherichia coli CTX-M-15; conditions: CTXM15
Method: as §1, §2

[3] = tested on: Klebsiella pneumoniae OXA-163, OXA-1_OXA-30, SHV-1, TEM-1
Method: as §1, §2

[4] = tested on: Escherichia coli Isogenic TEM-10
Method: as §1, §2

[5] = tested on: Klebsiella pneumoniae KPC-3; conditions: KPC3, KPC-3, read-out: MIC
Method: as §1, §2

[6] = tested on: Escherichia coli Empty pSMART plasmid
Method: as §1, §2

[7] = tested on: Pseudomonas aeruginosa ATCC 27853; conditions: ATCC27853
Method: as §1, §2

[8] = tested on: Escherichia coli pSMART_Ecloacae_AmpC
Method: as §1, §2

[9] = tested on: Escherichia coli pSMART_Cfreundii_AmpC
Method: as §1, §2

[10] = tested on: Klebsiella pneumoniae OXA-48, SHV-1
Method: as §1, §2

[11] = tested on: Escherichia coli Isogenic TEM-26
Method: as §1, §2

[12] = tested on: Klebsiella pneumoniae SHV-12; conditions: SHV12, SHV-12, read-out: MIC
Method: as §1, §2

[13] = tested on: Pseudomonas aeruginosa OprD negative
Method: as §1, §2

[14] = tested on: Enterobacter cloacae species complex NDM-1
Method: as §1, §2

[15] = tested on: Citrobacter freundii species complex OXA-181; conditions: Citrobacter freundii species complex, OXA-181; read-out: MIC
Method: as §1, §2

[16] = tested on: Serratia marcescens SME-2; conditions: SME2
Method: as §1, §2

[17] = tested on: Klebsiella pneumoniae KPC-2; conditions: KPC2
Method: as §1, §2

[18] = tested on: Pseudomonas aeruginosa AmpC overexpressed
Method: as §1, §2

[19] = tested on: Serratia marcescens AmpC overexpressed
Method: as §1, §2

Escherichia coli SHV-12 = conditions: SHV12
Method: as §1, §2

[20] = tested on: Acinetobacter baumannii ATCC 19606; conditions: ATCC19606
Method: as §1, §2

[21] = tested on: Klebsiella oxytoca KPC-2, TEM-1; conditions: KPC-2, TEM-1, read-out: MIC
Method: as §1, §2

[22] = tested on: Escherichia coli ATCC 25922; conditions: ATCC25922
Method: as §1, §2

SMILES | MIC [1] | MIC (Escherichia coli CMY-2) | MIC [2] | MIC [3] | MIC [4] | MIC [5] | MIC [6] | MIC [7] | MIC [8] | MIC [9] | MIC [10] | MIC [11] | MIC [12] | MIC [13] | MIC [14] | MIC [15] | MIC [16] | MIC [17] | MIC [18] | MIC [19] | further results
Nc1nc(/C(=N/OC2(C(=O)O)CCC(Cl)(Cl)CC2)C(=O)N[C@H]2CON(C3(C(=O)O)C[C@H](N4C(=O)c5cc(O)c(O)cc5C4=O)C(=O)O3)C2=O)cs1 (stereo partly drawn) [Cmpd 12, (4S)-2-[(4S)-4-{[(2Z)-2-(2-amino-1,3-thiazol-4-yl)-2-{[(1-carboxy-4,4-dichlorocyclohexyl)oxy]imino}acetyl]amino}-3-oxo-1,2-oxazolidin-2-yl]-4-(5,6-dihydroxy-1,3-dioxo-1,3-dihydro-2H-isoindol-2-yl)-5-oxooxolane-2-carboxylic acid] | 0.5 µg/mL (≈ 0.648 µM) | 1 µg/mL (≈ 1.3 µM) | 4 µg/mL (≈ 5.18 µM) | 0.12 µg/mL (≈ 0.156 µM) | 0.06 µg/mL (≈ 0.0778 µM) | 0.06 µg/mL (≈ 0.0778 µM) | 0.03 µg/mL (≈ 0.0389 µM) | 0.25 µg/mL (≈ 0.324 µM) | 0.06 µg/mL (≈ 0.0778 µM) | 0.06 µg/mL (≈ 0.0778 µM) | ≤ 0.015 µg/mL | 0.06 µg/mL (≈ 0.0778 µM) | 0.03 µg/mL (≈ 0.0389 µM) | 0.25 µg/mL (≈ 0.324 µM) | 2 µg/mL (≈ 2.59 µM) | 0.03 µg/mL (≈ 0.0389 µM) | 0.12 µg/mL (≈ 0.156 µM) | 0.06 µg/mL (≈ 0.0778 µM) | 2 µg/mL (≈ 2.59 µM) | 0.25 µg/mL (≈ 0.324 µM) | MIC (Escherichia coli SHV-12): 2 µg/mL (≈ 2.59 µM); MIC [20]: 0.25 µg/mL (≈ 0.324 µM); MIC [21]: ≤ 0.015 µg/mL; MIC [22]: 0.25 µg/mL (≈ 0.324 µM)
Nc1nc(/C(=N/OC2(C(=O)O)CC3CCC(C2)O3)C(=O)N[C@H]2CON(C3(C(=O)O)C[C@H](N4C(=O)c5cc(O)c(O)cc5C4=O)C(=O)O3)C2=O)cs1 (stereo partly drawn) [Cmpd 13, 3-({(Z)-[1-(2-amino-1,3-thiazol-4-yl)-2-({(4S)-2-[(4S)-2-carboxy-4-(5,6-dihydroxy-1,3-dioxo-1,3-dihydro-2H-isoindol-2-yl)-5-oxooxolan-2-yl]-3-oxo-1,2-oxazolidin-4-yl}amino)-2-oxoethylidene]amino}oxy)-8-oxabicyclo[3.2.1]octane-3-carboxylic acid] | 0.25 µg/mL (≈ 0.342 µM) | 0.5 µg/mL (≈ 0.684 µM) | 4 µg/mL (≈ 5.47 µM) | 0.12 µg/mL (≈ 0.164 µM) | 0.03 µg/mL (≈ 0.0411 µM) | 0.06 µg/mL (≈ 0.0821 µM) | 0.12 µg/mL (≈ 0.164 µM) | 0.25 µg/mL (≈ 0.342 µM) | 0.06 µg/mL (≈ 0.0821 µM) | 0.06 µg/mL (≈ 0.0821 µM) | 0.0149 µg/mL (≈ 0.0204 µM) | 0.03 µg/mL (≈ 0.0411 µM) | 0.03 µg/mL (≈ 0.0411 µM) | 0.25 µg/mL (≈ 0.342 µM) | 1 µg/mL (≈ 1.37 µM) | 0.0149 µg/mL (≈ 0.0204 µM) | 0.25 µg/mL (≈ 0.342 µM) | 0.25 µg/mL (≈ 0.342 µM) | 1 µg/mL (≈ 1.37 µM) | 0.12 µg/mL (≈ 0.164 µM) | MIC (Escherichia coli SHV-12): 2 µg/mL (≈ 2.74 µM); MIC [20]: 0.12 µg/mL (≈ 0.164 µM); MIC [21]: 0.0149 µg/mL (≈ 0.0204 µM); MIC [22]: 0.12 µg/mL (≈ 0.164 µM)
Nc1nc(/C(=N/OC2(C(=O)O)COC2)C(=O)N[C@H]2CON(C3(C(=O)O)C[C@H](N4C(=O)c5cc(O)c(O)cc5C4=O)C(=O)O3)C2=O)cs1 (stereo partly drawn) [Cmpd 5, (4S)-2-[(4S)-4-{[(2Z)-2-(2-amino-1,3-thiazol-4-yl)-2-{[(3-carboxyoxetan-3-yl)oxy]imino}acetyl]amino}-3-oxo-1,2-oxazolidin-2-yl]-4-(5,6-dihydroxy-1,3-dioxo-1,3-dihydro-2H-isoindol-2-yl)-5-oxooxolane-2-carboxylic acid] | 2 µg/mL (≈ 2.96 µM) | 4 µg/mL (≈ 5.91 µM) | 2 µg/mL (≈ 2.96 µM) | 0.06 µg/mL (≈ 0.0887 µM) | 0.03 µg/mL (≈ 0.0443 µM) | 0.03 µg/mL (≈ 0.0443 µM) | ≤ 0.015 µg/mL | 0.25 µg/mL (≈ 0.37 µM) | 0.06 µg/mL (≈ 0.0887 µM) | 0.25 µg/mL (≈ 0.37 µM) | ≤ 0.015 µg/mL | 0.03 µg/mL (≈ 0.0443 µM) | 0.03 µg/mL (≈ 0.0443 µM) | 2 µg/mL (≈ 2.96 µM) | 0.25 µg/mL (≈ 0.37 µM) | 0.06 µg/mL (≈ 0.0887 µM) | 0.12 µg/mL (≈ 0.177 µM) | 0.06 µg/mL (≈ 0.0887 µM) | 1 µg/mL (≈ 1.48 µM) | 0.25 µg/mL (≈ 0.37 µM) | MIC (Escherichia coli SHV-12): 1 µg/mL (≈ 1.48 µM); MIC [20]: 0.12 µg/mL (≈ 0.177 µM); MIC [21]: ≤ 0.015 µg/mL; MIC [22]: 0.25 µg/mL (≈ 0.37 µM)
